Source: patent US20240209022A1, “NOVEL PEPTIDE HAVING ANTI-INFLAMMATORY AND TISSUE REGENERATIVE ACTIONS” (KOREA RESEARCH INSTITUTE OF BIOSCIENCE AND BIOTECHNOLOGY, priority 2020, published 2024)

B1: Amuc_1409: SEQ ID NO: 15, functional fragment obtained by eliminating the leader sequence from SEQ ID NO: 14; protein derived from Akkermansia muciniphila (protein)
chain: IPESSVPAAAVSSIKGAYPNAGPIEWDSEMHGMERIYEAEFRINGFQFDVKIAPDGKIVRIKEEIAASSLPEAVRASVLKRYPGCRIKEAEKITEGELVRYKVEVADSRDDYDVLIAPDGNILHVDR
modifications: Amuc_1409_fragment
notes: protein derived from Akkermansia muciniphila

What was measured:
[1] = tested on: MIA-induced degenerative arthritis model; test: MIA-induced degenerative arthritis model; type: in vivo, C57BL/6J mice; settings: for diameter of the knee joint: day 1 after MIA injection, i.p.
Method: As a degenerative arthritis model, 9-week-old specific pathogen free (SPF) male C57BL/6J mice were anesthetized, the area around the right knee joint was cleanly shaved, and 10 μL of MIA solution (monosodium iodoacetate 0.5 mg in 10 μL 0.9% sterile saline) was injected into the knee joint cavity to induce arthritis. From 3 days before MIA (monosodium iodoacetate) solution injection, Amuc_1409 or PEP001, PEP002, PEP003, PEP004, PEP005, PEP006, PEP007, PEP008, PEP009, PEP010, PEP011, PEP012, or PEP013 was dissolved in PBS buffer at a concentration of 6.7 μM and then injected into the mouse peritoneal cavity at 150 μL per animal once a day at the same time. On day 3 (0 days) after administration of Amuc_1409 or PEP001 to PEP013, an additional intraperitoneal injection was given 1 hour before MIA injection, the drug was intraperitoneally injected once a day at the same time after MIA injection, and the experiment was terminated on the 30th day after MIA injection. In the control group, the same volume of PBS buffer was injected intraperitoneally. After MIA injection, the diameter of the knee joint was measured using a caliper for 7 days at 2-day intervals (0, 1, 3, 5, and 7 days) to evaluate swelling caused by inflammatory changes of the joint. […] At this time, the weight bearing on the limb was lower as arthritis was more severe. The weight-bearing weight (g) of each of both paws was measured, and in this experiment, the value was expressed as the ratio (%) of the right hind limb with arthritis to the total hind limb. Weight bearing ratio (%)=weight-bearing weight of right hind limb with arthritis (g)/weight-bearing weight of both hind limbs (g)×100 After termination of the experiment, the test animals were sacrificed, then the knee joint tissue of the mouse was fixed with 10% neutral buffered formalin, and the bone was decalcified with a 0.5 M EDTA solution. Next, the joint tissue was embedded in paraffin to prepare a 5 μm joint section, and Safranin O staining was performed to histopathologically analyze the degree of damage to the cartilage tissue. At this time, the degree of damage to the cartilage tissue was evaluated by examining the degree of safranin O staining of the sections and scored according to OARSI (Osteoarthritis Research Society International grade) guidelines. The scoring criteria according to the OARSI guidelines are as follows (Table 1). [table]

[2] = tested on: C57BL/6 mice with telogen hair; test: Hair growth promotion on shaved dorsal skin; type: in vivo; settings: vs vehicle
Method: In order to examine the hair growth promoting efficacy, 8-week-old C57BL/6 mice with telogen hair having pink dorsal skin were used. The mice were anesthetized, then the hair on the back of the mouse was removed using an electric hair clipper for animals. Amuc_1409 was dissolved in vehicle (50% ethanol, 20% propylene glycol, 30% water) at a concentration of 3.2 μM and then applied to the skin of the hair-removed site by 200 μL per animal using a pipette once a day for 21 days, and PEP006 to PEP013 were each dissolved in vehicle (50% ethanol, 20% propylene glycol, 30% water) at a concentration of 30 μM and then applied to the skin of the hair-removed site by 200 μL per animal using a pipette once a day for 28 days. For the control group, the same volume of vehicle (50% ethanol, 20% propylene glycol, 30% water) was applied to the skin.
Skin color and hair density were visually observed, scored according to the scoring criteria in Table 5, and graphed (Table 5).
After the experiment, the test animals were sacrificed, then the skin tissue of the mouse was fixed in 10% NBF at room temperature for 24 hours or more, and then embedded in paraffin to prepare a 5 μm-thick section, and the section was stained with (H&E) hematoxylin and eosin. The histological changes of the hair follicle tissue in the H&E-stained tissue sections were observed under an optical microscope. The number and depth of hair follicles and the thicknesses of dermis and subcutis were measured under an optical microscope, and the hair growth cycle was evaluated. The number of hair follicles was calculated by counting the number of hair follicles present in the subcutaneous tissue under a 100-magnification optical microscope. Changes in the depth of hair follicles and the thicknesses of dermis and subcutis were measured using the Image J program using a scale bar.

small intestine organoid = test: Small intestine organoid sprouting; type: cell-based, C57BL/6J mice; settings: 16 nM on days 0, 2, 4; day 5 of culture; vs PBS buffer
Method: In order to establish a small intestine organoid model, the small intestine of 15-week-old male C57BL/6J mice was cut longitudinally from the proximal end to the distal end, and cut transversely into about 5 mm long pieces. The small intestine tissue thus obtained was washed with refrigerated PBS containing 1% penicillin. Thereafter, the washed small intestine tissue was treated with dissociation buffer and filtered through a cell strainer to isolate crypts. The isolated crypt was cultured in Matrigel and Organoid Growth Medium (Intesticult™) mixed at a ratio of 1:1, Matrigel was solidified at 37° C. for 20 minutes in a 12 well plate, and then medium (500 μL/well) was added. The medium was replaced after 4 days, and subculture was performed on day 7.
For novel peptide screening, organoids 3D cultured in medium and Matrigel support were dispensed into 3 wells per group using a 12-well plate and 50 organoids per well. On days 0, 2, and 4 of culture, the organoids were treated with novel tetrapeptides PEP006, PEP007, PEP008, PEP009, and PEP010 and novel tripeptides PEP011, PEP012, and PEP013 at a concentration of 16 nM as described above, and the number of lobes of sprouted organoids on day 5 of culture was examined and analyzed for comparison. The control group was treated with PBS buffer in the same manner.

[3] = tested on: full-thickness skin defect wound-induced model; test: Full-thickness skin defect wound-induced model (tail); type: in vivo, C57BL/6J mice; settings: 120 μM, 25 μL applied once a day for 28 days; vs vehicle
Method: In order to confirm the tissue regeneration efficacy of the novel peptides, an experiment was conducted using a wound-induced model induced by a full-thickness skin defect of mouse's tail. For a full-thickness skin defect wound-induced model, 9-week-old specific pathogen free (SPF) male C57BL/6J mice were anesthetized, and then in order to indicate full-thickness wounding, a full-thickness wound with a size of 10 mm×3 mm was made on the dorsal part of the mouse's tail, about 1.0 cm away from the base of the mouse's tail, using an aseptic dissection mass No. 10. Bleeding was stopped by compressing the wound, and the wound was covered with a film spray dressing (Cavilon, 3M). For 28 days from the day of wound induction, Amuc_1409 or PEP001 to PEP013 were each dissolved in vehicle (50% ethanol, 20% propylene glycol, 30% water) at a concentration of 120 μM and then applied to the wound site by 25 μL per animal once a day. For the control group, the same volume of vehicle (50% ethanol, 20% propylene glycol, 30% water) was applied to the wound site. The test was terminated on day 29 after wound induction. In order to observe the wound healing effect, the wound sites of animals in each test group were individually photographed using a digital camera at a constant height from the wound for 28 days at 7-day intervals from the day of wound induction, and the wound area was measured using the Image J Soft program.

[4] = 2 weeks and 4 weeks after MIA injection, vs PBS buffer group
[5] = day 28 after application, 30 μM topical
[6] = days 3, 5, and 7 after MIA injection, vs PBS buffer group
[7] = 2 weeks after MIA injection, vs PBS buffer group
[8] = 4 weeks after MIA injection, vs PBS buffer group
[9] = day 3 after MIA injection, vs PBS buffer group
[10] = day 5 after MIA injection, vs PBS buffer group
[11] = day 7 after MIA injection, vs PBS buffer group

Molecule	weight bearing ratio [1, 4]	proportion of the area where hair grew out to the total area (hair growth score) [2, 5]	number of lobes of sprouted organoids (small intestine organoid)	wound area [3]	wound size (visually confirmed) [3]	diameter of the knee joint ([1]; vs PBS buffer group)	thickness of the knee joint [1, 6]	also measured
AIS [PEP013]	tended to be improved	tended to increase	significantly increased	significantly decreased	rapidly decreased	–	–	–
AVSSI (PEP002)	significantly increased	–	–	significantly decreased	rapidly decreased	significantly decreased	significantly decreased	–
SGAY (PEP009)	–	tended to increase	significantly increased	significantly decreased	rapidly decreased	tended to decrease	–	weight bearing ratio [1, 7]: tended to increase close to a significant level; weight bearing ratio [1, 8]: significantly increased; thickness of the knee joint [1, 9]: significantly decreased; thickness of the knee joint [1, 10]: tended to decrease; thickness of the knee joint [1, 11]: significantly decreased
KGAY (PEP003)	significantly increased	–	–	significantly decreased	rapidly decreased	significantly decreased	significantly decreased	–
GAY [PEP005]	significantly increased	–	–	significantly decreased	rapidly decreased	tended to decrease	significantly decreased	–
AQS [PEP011]	significantly improved	tended to increase	significantly increased	significantly decreased	rapidly decreased	–	–	–
VGAY (PEP010)	–	–	significantly increased	significantly decreased	rapidly decreased	tended to decrease	–	weight bearing ratio [1, 7]: significantly increased; weight bearing ratio [1, 8]: significantly increased; thickness of the knee joint [1, 9]: significantly decreased; thickness of the knee joint [1, 10]: significantly decreased; thickness of the knee joint [1, 11]: significantly decreased
AVSSIKGAY (PEP001)	significantly increased	–	–	significantly decreased	rapidly decreased	tended to decrease	significantly decreased	–
AGAY (PEP006)	–	tended to increase	significantly increased	significantly decreased	rapidly decreased	–	–	weight bearing ratio [1, 7]: significantly increased; weight bearing ratio [1, 8]: significantly increased
AGS [PEP012]	significantly improved	tended to increase	significantly increased	–	–	–	–	–
AVS (AVSSIKGAY) [PEP004]	significantly increased	–	–	significantly decreased	rapidly decreased	significantly decreased	significantly decreased	–
B1	significantly increased	–	–	significantly decreased	rapidly decreased	significantly decreased	significantly decreased	histopathological findings in knee joint tissue, safranin O staining ([1]; after termination of the experiment): only a slight loss of safranin O was observed in the cartilage zone and the overall cartilage morphology was maintained; degree of cartilage destruction by OARSI score ([1]; vs PBS buffer group): significantly decreased; depth of the hair follicle ([2]; H&E): significantly increased; number of hair follicles present in the subcutaneous fat layer ([2]; H&E): significantly increased; proportion of hair in the anagen phase ([2]; H&E): significantly increased; thickness of dermis ([2]; H&E): significantly increased; thickness of subcutis ([2]; H&E): significantly increased; proportion of the area where hair grew out to the total area (hair growth score) ([2]; day 21 after application, 3.2 μM topical): significantly increased
